Measured values taken from patent US7172862B2, “FBL2-specific agents as modulators of Flaviviridae RNA replication” (Board of Regents, The University of Texas System, priority 2005, dated 2007).

How the values were obtained:
[1] = tested on: HCV RNA replication; settings: cited from earlier work; for overcoming of the inhibition of HCV RNA replication by lovastatin: added with lovastatin
[2] = tested on: HCV RNA; test: HCV RNA level / replication in Huh7-HP replicon cells; type: cell-based; settings: drug treatment
Description: Further evidence that FBL2 is required for HCV RNA replication was obtained in experiments in which the level of FBL2 mRNA was reduced by transfection with duplex siRNA. An siRNA sequence targeting human FBL2 and having a sequence corresponding to positions 40-60 relative to the first nucleotide start codon, was transfected into Huh7-HP cells with TransMessenger transfection reagent (Qiagen) according to the manufacturer's protocol. […] We confirmed that these cells resemble the other HCV replicon cell lines in that HCV replication is inhibited by treatment with lovastatin (Ye et al., 2003) or an inhibitor of GGTase-I, GGTI-286. The NS5A derived from these cells interacts with FBL2. siRNA targeting FBL2 was and produced a 70% knockdown of FBL2 mRNA, an effect that was not observed when the cells were treated with a control siRNA containing 6 mismatched nucleotides.

[3] = tested on: wild-type FBL2; test: Subcellular fractionation (cytosol/membrane) and immunoblot of transfected wild-type FBL2 in CHO-7 cells; type: cell-based; settings: CHO-7 cells transfected with Myc-tagged wild-type FBL2; immunoblot anti-Myc
Description: (§1) Since prenylation of proteins normally facilitates their membrane association, we compared the localization of wild-type FBL2 and the mutant FBL2 that cannot be prenylated. CHO-7 cells transfected with a plasmid encoding NH2-terminal Myc-tagged wild-type FBL2 or mutant FBL2(C420S) were treated either with GGTI-286, a drug that inhibits both geranylgeranylation and farnesylation, or with FPTI-III, a drug that inhibits only farnesylation (Ye et al., 2003). Cells were fractionated into cytosol and membrane fractions, and immunoblotted with monoclonal anti-Myc IgG-9E10.

[4] = tested on: mutant FBL2(C420S); test: Subcellular fractionation (cytosol/membrane) and immunoblot of transfected mutant FBL2(C420S) in CHO-7 cells; type: cell-based; settings: CHO-7 cells transfected with Myc-tagged FBL2(C420S)
Description: as §1

[5] = tested on: NS5A; settings: Huh7 cells; anti-Flag pull-down of NS5A, anti-Myc blot
Description: To determine the components of FBL2 that are required for interaction with the NH2-terminal half of NS5A, we made plasmids encoding the following proteins: NH2-terminal Myc-tagged wild-type FBL2, FBL2 with its CAAX box mutated so that it cannot be geranylgeranylated (C420S), FBL2 with its NH2-terminal F-box deleted (FBL2(67-423)), and FBL2 with both its F-box deleted and its CAAX box mutated (FBL2 67-423, C420S). These plasmids were transfected into Huh7 cells together with a plasmid encoding Flag and HA-tagged NS5A. Cell extracts were immunoprecipitated with anti-Flag beads to pull down NS5A and blotted with anti-HA and anti-Myc for detection of transfected NS5A and FBL2, respectively.

[6] = tested on: HCV RNA replicon; test: HCV RNA level in Huh7-K2040 replicon cells after transfection of FBL2 plasmids; type: cell-based; settings: at least 80% of cells transfected
Description: FBL2(67-423), which lacks an F-box, is likely to be nonfunctional, yet it still binds to NS5A. We therefore considered the possibility that overexpression of FBL2(67-423) may inhibit HCV RNA replication in a dominant-negative fashion by sequestering NS5A and preventing it from interacting with endogenous functional FBL2. To test this hypothesis, we transfected plasmids encoding wild-type and various mutant versions of FBL2 into Huh7-K2040 cells that harbor the HCV RNA replicon. As described above, we included only those experiments in which at least 80% of the cells were transfected. […] Importantly, transfected FBL2(67-423; C420S), which cannot bind to NS5A, had no effect on HCV RNA levels.

[7] = tested on: West Nile virus replicon; test: West Nile virus replicon RNA level in Huh7-WNV-2 cells after transfection of FBL2 plasmids; type: cell-based; settings: conditions reducing HCV RNA by 75%

Molecule: CC(C)=CCCC(C)=CCCC(C)=CCO [farnesol]
- overcoming of the inhibition of HCV RNA replication by lovastatin [1]: not

Molecule: CC(C)=CCC/C(C)=C/CC/C(C)=C/CC/C(C)=C/CO [geranylgeraniol]
- overcoming of the inhibition of HCV RNA replication by lovastatin [1]: overcome

Molecule: CC[C@H](C)C(=O)O[C@H]1C[C@@H](C)C=C2C=C[C@H](C)[C@H](CC[C@@H]3C[C@@H](O)CC(=O)O3)[C@H]21 [lovastatin]
- HCV replication [2]: inhibited
- HCV RNA replication ([1]; Huh7 cells): disrupted

Molecule: COC(=O)[C@H](CC(C)C)NC(=O)c1ccc(NC[C@@H](N)CS)cc1-c1ccccc1 [GGTI-286]
- localization of wild-type FBL2 in cytosol and membrane fractions [3]: distributed equally in cytosol and membrane fractions
- subcellular localization of the mutant FBL2 that lacks a CAAX motif [4]: did not change
- HCV replication [2]: inhibited

Molecule: FPTI-III
- localization of wild-type FBL2 in cytosol and membrane fractions [3]: not

B1: wild-type FBL2: NH2-terminal Myc-tagged wild-type FBL2 expressed from a transfected plasmid (protein, UniProt Q9UKC9 1-423, looked up)
F-box/LRR-repeat protein 2: MVFSNNDEGLINKKLPKELLLRIFSFLDIVTLCRCAQISKAWNILALDGSNWQRIDLFNFQTDVEGRVVENISKRCGGFLRKLSLRGCIGVGDSSLKTFAQNCRNIEHLNLNGCTKITDSTCYSLSRFCSKLKHLDLTSCVSITNSSLKGISEGCRNLEYLNLSWCDQITKDGIEALVRGCRGLKALLLRGCTQLEDEALKHIQNYCHELVSLNLQSCSRITDEGVVQICRGCHRLQALCLSGCSNLTDASLTALGLNCPRLQILEAARCSHLTDAGFTLLARNCHELEKMDLEECILITDSTLIQLSIHCPKLQALSLSHCELITDDGILHLSNSTCGHERLRVLELDNCLLITDVALEHLENCRGLERLELYDCQQVTRAGIKRMRAQLPHVKVHAYFAPVTPPTAVAGSGQRLCRCCVIL
modifications: N-terminal Myc tag
notes: NH2-terminal Myc-tagged wild-type FBL2 expressed from a transfected plasmid
- co-precipitation with NS5A [5]: co-precipitated
- reduction of the level of HCV RNA [6]: did not change

B2: FBL2(67-423): FBL2 with its NH2-terminal F-box deleted; dominant-negative for HCV RNA replication (protein, UniProt Q9UKC9 67-423, looked up, fragment)
chain: RVVENISKRCGGFLRKLSLRGCIGVGDSSLKTFAQNCRNIEHLNLNGCTKITDSTCYSLSRFCSKLKHLDLTSCVSITNSSLKGISEGCRNLEYLNLSWCDQITKDGIEALVRGCRGLKALLLRGCTQLEDEALKHIQNYCHELVSLNLQSCSRITDEGVVQICRGCHRLQALCLSGCSNLTDASLTALGLNCPRLQILEAARCSHLTDAGFTLLARNCHELEKMDLEECILITDSTLIQLSIHCPKLQALSLSHCELITDDGILHLSNSTCGHERLRVLELDNCLLITDVALEHLENCRGLERLELYDCQQVTRAGIKRMRAQLPHVKVHAYFAPVTPPTAVAGSGQRLCRCCVIL
- co-precipitation with NS5A [5]: co-precipitated
- change in the level of West Nile virus replicon RNA [7]: no significant change

B3: FBL2(67-423; C420S): FBL2 with both its F-box deleted and its CAAX box mutated (protein, UniProt Q9UKC9 67-423, looked up, fragment C420S)
chain: RVVENISKRCGGFLRKLSLRGCIGVGDSSLKTFAQNCRNIEHLNLNGCTKITDSTCYSLSRFCSKLKHLDLTSCVSITNSSLKGISEGCRNLEYLNLSWCDQITKDGIEALVRGCRGLKALLLRGCTQLEDEALKHIQNYCHELVSLNLQSCSRITDEGVVQICRGCHRLQALCLSGCSNLTDASLTALGLNCPRLQILEAARCSHLTDAGFTLLARNCHELEKMDLEECILITDSTLIQLSIHCPKLQALSLSHCELITDDGILHLSNSTCGHERLRVLELDNCLLITDVALEHLENCRGLERLELYDCQQVTRAGIKRMRAQLPHVKVHAYFAPVTPPTAVAGSGQRLCRCSVIL
- co-precipitation with NS5A [5]: abrogated binding
- reduction of the level of HCV RNA [6]: no effect

B4: FBL2(50-423): alternative FBL2 N-terminal truncation (protein, UniProt Q9UKC9 50-423, looked up, fragment)
chain: SNWQRIDLFNFQTDVEGRVVENISKRCGGFLRKLSLRGCIGVGDSSLKTFAQNCRNIEHLNLNGCTKITDSTCYSLSRFCSKLKHLDLTSCVSITNSSLKGISEGCRNLEYLNLSWCDQITKDGIEALVRGCRGLKALLLRGCTQLEDEALKHIQNYCHELVSLNLQSCSRITDEGVVQICRGCHRLQALCLSGCSNLTDASLTALGLNCPRLQILEAARCSHLTDAGFTLLARNCHELEKMDLEECILITDSTLIQLSIHCPKLQALSLSHCELITDDGILHLSNSTCGHERLRVLELDNCLLITDVALEHLENCRGLERLELYDCQQVTRAGIKRMRAQLPHVKVHAYFAPVTPPTAVAGSGQRLCRCCVIL
- reduction of the level of HCV RNA [6]: dominant-negative affects

B5: FBL2(100-423): alternative FBL2 N-terminal truncation (protein, UniProt Q9UKC9 100-423, looked up, fragment)
chain: AQNCRNIEHLNLNGCTKITDSTCYSLSRFCSKLKHLDLTSCVSITNSSLKGISEGCRNLEYLNLSWCDQITKDGIEALVRGCRGLKALLLRGCTQLEDEALKHIQNYCHELVSLNLQSCSRITDEGVVQICRGCHRLQALCLSGCSNLTDASLTALGLNCPRLQILEAARCSHLTDAGFTLLARNCHELEKMDLEECILITDSTLIQLSIHCPKLQALSLSHCELITDDGILHLSNSTCGHERLRVLELDNCLLITDVALEHLENCRGLERLELYDCQQVTRAGIKRMRAQLPHVKVHAYFAPVTPPTAVAGSGQRLCRCCVIL
- reduction of the level of HCV RNA [6]: dominant-negative affects
